Assay results published in patent US9663517B2, “Compositions and uses thereof” (Plexxikon Inc., priority 2009, dated 2017).

Assay: pKa of weakly basic centre
Assay type: physicochemical
Settings: N-7 of the azaindole portion
Excerpt: Propane-1-sulfonic acid {3-[5-(4-chloro-phenyl)-1H-pyrrolo[2,3-b]pyridine-3-carbonyl]-2,4-difluoro-phenyl}-amide is characterized as having functionalities providing both weakly basic and weakly acidic centers which can form organic salt complexes, resulting in improved solubility. For example, the N-7 of the azaindole portion is weakly basic (pKa approximately 4-5) and can form an acid addition salt complex with an organic acid such as benzenesulfonic acid, methylsulfonic acid or toluenesulfonic acid, preferably methanesulfonic acid or toluenesulfonic acid. Such mesylate or tosylate salts provide advantage over the free base, such as an improved solubility, improved intrinsic dissolution rate, and lower melting point than the free base. The improved intrinsic dissolution rate provides an advantage in formulation of the salt, for example, formulation in an amorphous form by methods described in the above examples. The improved solubility provides more efficient and cost effective formulation, for example spray drying or microprecipitated bulk processing can be performed using far less solvent volumes due to the intrinsic solubility. Such advantages may also be provided by formation of the mesylate or tosylate salt in situ during the processing, for example the process of spray drying, solvent controlled precipitation, or pH controlled precipitation. […]

Molecule `CCCS(=O)(=O)Nc1ccc(F)c(C(=O)c2c[nH]c3ncc(-c4ccc(Cl)cc4)cc23)c1F` [Compound I, propane-1-sulfonic acid {3-[5-(4-chloro-phenyl)-1H-pyrrolo[2,3-b]pyridine-3-carbonyl]-2,4-difluoro-phenyl}-amide] has a pKa of 4 to 5.
